The values below come from patent publication US8349897B2, “Biphenyloxyacetic acid derivatives for the treatment of respiratory disease” (Astrazeneca AB, priority 2005, dated 2013).

The assay has as its target T1, rhCRTh2 (Homo sapiens, UniProt Q9Y5Y4).
T1 construct: expressed in transfected cells; host or cells: HEK cells (membrane preparation)
T1 sequence (Q9Y5Y4 1-395): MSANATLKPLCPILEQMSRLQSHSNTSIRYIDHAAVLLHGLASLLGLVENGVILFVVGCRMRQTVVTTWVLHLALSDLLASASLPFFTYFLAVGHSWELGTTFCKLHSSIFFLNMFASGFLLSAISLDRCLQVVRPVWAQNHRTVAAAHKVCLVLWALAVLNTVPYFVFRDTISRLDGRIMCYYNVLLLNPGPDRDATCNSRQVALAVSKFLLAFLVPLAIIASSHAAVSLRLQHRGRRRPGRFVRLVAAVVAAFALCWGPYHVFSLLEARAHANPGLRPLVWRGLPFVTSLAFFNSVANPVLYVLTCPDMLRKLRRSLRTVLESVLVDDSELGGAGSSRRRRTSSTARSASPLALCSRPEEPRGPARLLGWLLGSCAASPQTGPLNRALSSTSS
Put plainly: Ligand binding assay ([3H]PGD2 SPA, HEK cell membranes). The note with it: [3H]PGD2 displacement, membranes of HEK cells expressing rhCRTh2/Gα16, SPA beads, 2 hours room temperature; read-out: pIC50 value (converted). The protocol: [^3H]PGD2 was purchased from Perkin Elmer Life Sciences with a specific activity of 100-210 Ci/mmol. All other chemicals were of analytical grade.
HEK cells expressing rhCRTh2/Gα16 were routinely maintained in DMEM containing 10% Foetal Bovine Serum (HyClone), 1 mg/ml geneticin, 2 mM L-glutamine and 1% non-essential amino acids. For the preparation of membranes, the adherent transfected HEKcells were grown to confluence in two layer tissue culture factories (Fisher, catalogue number TKT-170-070E). Maximal levels of receptor expression were induced by addition of […] sodium butyrate for the last 18 hours of culture. The adherent cells were washed once with phosphate buffered saline (PBS, 50 ml per cell factory) and detached by the addition of 50 ml per cell factory of ice-cold membrane homogenisation buffer [20 mM HEPES (pH 7.4), 0.1 mM dithiothreitol, 1 mM EDTA, 0.1 mM phenyl methyl sulphonyl fluoride and 100 μg/ml bacitracin]. […] The final pellet was re-suspended in 4 ml of membrane homogenisation buffer per cell factory used and the protein content determined. […]
All assays were performed in Corning clear bottomed, white 96-well NBS plates (Fisher). […] (The optimum coating concentrations were determined for each batch of membranes) The beads were pelleted by centrifugation (800×g for 7 minutes at 4° C.), washed once with assay buffer (50 mM HEPES pH 7.4 containing 5 mM magnesium chloride) and finally re-suspended in assay buffer at a bead concentration of 10 mg/ml.
Each assay contained 20 μl of 6.25 nM [^3H]PGD2, 20 μl membrane saturated SPA beads both in assay buffer and 10 μl of compound solution or 13,14-dihydro-15-keto prostaglandin D2 (DK-PGD2, for determination of non-specific binding, Cayman chemical company). […] The assay plate was incubated at room temperature for 2 hours and counted on a Wallac Microbeta liquid scintillation counter (1 minute per well).
Consider `O=C(O)COc1ccc(F)cc1-c1ccc(S(=O)(=O)c2ccccc2)c(C(F)(F)F)c1` [Example 7, {[5-fluoro-4′-(phenylsulfonyl)-3′-(trifluoromethyl)biphenyl-2-yl]oxy}acetic acid], for which the IC50 is 3.16 nM.
Next, `C[C@H](Oc1ccc(Cl)cc1-c1ccc(S(=O)(=O)c2ccc(F)cc2)cc1)C(=O)O` [Example 8, (2S)-2-({5-chloro-4′-[(4-fluorophenyl)sulfonyl]biphenyl-2-yl}oxy)propanoic acid]: 1.58 nM.
Take `C[C@H](Oc1ccc(F)cc1-c1ccc(S(=O)(=O)c2ccccc2)cc1Cl)C(=O)O` [Example 15, (2S)-2-{[2′-chloro-5-fluoro-4′-(phenylsulfonyl)biphenyl-2-yl]oxy}propanoic acid]: the IC50 was 1.58 nM.
